PubChem BioAssay AID336 (DTP/NCI, 2004)
Values joined by “and” are separate entries in the source; they are usually repeats but may differ in a detail not shown here. Equal values may be shown once. Inconclusive results and toxic doses are left out.

System: BDF1 mice, P388/VCR leukemia ip, median survival T/C
Test: NCI In Vivo Anticancer Drug Screen. Data for tumor model P388 Leukemia resistant to Vincristine; NSC 67574 (intraperitoneal) in B6D2F1 (BDF1) mice
Conditions: endpoint: median survival time, higher = longer survival
Procedure: The antitumor activity of compounds was measured in mice bearing transplantable tumors. Survival or tumor size were measured and the results are expressed as the measurement made in the treated group (T) divided by the measurement made in the vehicle treated control group (C). The tumor model used in this assay is P388 Leukemia resistant to Vincristine; NSC 67574 (intraperitoneal) in B6D2F1 (BDF1) mice

[1] = dose: 31.3 mg/kg/injection, schedule: Q01DX010 (ip), vehicle: saline
[2] = dose: 62.5 mg/kg/injection, schedule: Q01DX010 (ip), vehicle: saline
[3] = dose: 125.0 mg/kg/injection, schedule: Q01DX010 (ip), vehicle: saline
[4] = dose: 120.0 mg/kg/injection, schedule: Q01DX010 (ip), vehicle: saline
[5] = dose: 100.0 mg/kg/injection, schedule: Q01DX010 (ip), vehicle: saline
[6] = dose: 200.0 mg/kg/injection, schedule: Q01DX010 (ip), vehicle: saline
[7] = dose: 18.0 mg/kg/injection, schedule: Q01DX010 (ip), vehicle: saline
[8] = dose: 27.0 mg/kg/injection, schedule: Q01DX010 (ip), vehicle: saline
[9] = dose: 40.0 mg/kg/injection, schedule: Q01DX010 (ip), vehicle: saline
[10] = dose: 60.0 mg/kg/injection, schedule: Q01DX010 (ip), vehicle: saline
[11] = dose: 8.0 mg/kg/injection, schedule: Q01DX010 (ip), vehicle: saline
[12] = dose: 16.0 mg/kg/injection, schedule: Q01DX010 (ip), vehicle: saline
[13] = dose: 64.0 mg/kg/injection, schedule: Q01DX010 (ip), vehicle: saline
[14] = dose: 32.0 mg/kg/injection, schedule: Q01DX010 (ip), vehicle: saline
[15] = dose: 15.0 mg/kg/injection, schedule: Q01DX010 (ip), vehicle: saline
[16] = dose: 30.0 mg/kg/injection, schedule: Q01DX010 (ip), vehicle: saline

CCn1cnc2c(=S)nc[nH]c21
T/C (dose: 15.6 mg/kg/injection, schedule: Q01DX010 (ip), vehicle: saline): 100 % of control and 109 % of control | T/C [1]: 100 % of control | T/C [2]: 100 % of control | T/C [3]: 95 % of control

CCCSc1ncnc2nc[nH]c12
T/C [1]: 95 % of control | T/C [2]: 95 % of control | T/C [3]: 88 % of control and 95 % of control | T/C (dose: 250.0 mg/kg/injection, schedule: Q01DX010 (ip), vehicle: saline): 95 % of control

COc1cc2c[n+](C)c3c4cc5c(cc4ccc3c2cc1OC)OCO5
T/C (dose: 43.2 mg/kg/injection, schedule: Q04DX003 (ip), vehicle: Klucel (hydroxypropylcellulose) (HPC)): 106 % of control | T/C (dose: 72.0 mg/kg/injection, schedule: Q04DX003 (ip), vehicle: Klucel (hydroxypropylcellulose) (HPC)): 108 % of control | T/C (dose: 120.0 mg/kg/injection, schedule: Q04DX003 (ip), vehicle: Klucel (hydroxypropylcellulose) (HPC)): 106 % of control | T/C (dose: 200.0 mg/kg/injection, schedule: Q04DX003 (ip), vehicle: Klucel (hydroxypropylcellulose) (HPC)): 109 % of control

O=C[C@@H](CO)O[C@H](C=O)n1cnc2c(=O)[nH]cnc21
T/C (dose: 180.0 mg/kg/injection, schedule: Q04DX003 (ip), vehicle: water): 210 % of control | T/C (dose: 300.0 mg/kg/injection, schedule: Q04DX003 (ip), vehicle: water): 323 % of control

CS(=O)(=O)OCCCl
T/C (dose: 37.5 mg/kg/injection, schedule: Q01DX010 (ip), vehicle: saline): 95 % of control and 100 % of control | T/C (dose: 75.0 mg/kg/injection, schedule: Q01DX010 (ip), vehicle: saline): 95 % of control and 100 % of control

COc1cc([C@@H]2c3cc4c(cc3[C@@H](OC3OC5COC(C)OC5C(O)C3O)[C@H]3COC(=O)[C@H]23)OCO4)cc(OC)c1O (stereo not given in full)
T/C (dose: 7.48 mg/kg/injection, schedule: Q04DX003 (ip), vehicle: other): 274 % of control | T/C (dose: 12.5 mg/kg/injection, schedule: Q04DX003 (ip), vehicle: other): 250 % of control | T/C (dose: 20.8 mg/kg/injection, schedule: Q04DX003 (ip), vehicle: other): 307 % of control | T/C (dose: 34.6 mg/kg/injection, schedule: Q04DX003 (ip), vehicle: other): 340 % of control

O=C(Nc1ccc(NC(=O)Nc2cccc(C3=NCCN3)c2)cc1)Nc1cccc(C2=NCCN2)c1
T/C [4]: 162 % of control and 183 % of control | T/C (dose: 480.0 mg/kg/injection, schedule: Q01DX010 (ip), vehicle: saline): 100 % of control

CC[C@](O)(C(=O)O)c1cc2n(c(=O)c1CO)Cc1cc3ccccc3nc1-2
T/C (dose: 14.4 mg/kg/injection, schedule: Q04DX003 (ip), vehicle: saline): 155 % of control | T/C (dose: 24.0 mg/kg/injection, schedule: Q04DX003 (ip), vehicle: saline): 180 % of control | T/C (dose: 40.0 mg/kg/injection, schedule: Q04DX003 (ip), vehicle: saline): 102 % of control | T/C (dose: 66.7 mg/kg/injection, schedule: Q04DX003 (ip), vehicle: saline): 161 % of control

O=c1cnn(C2OC(CO)C(O)C2O)c(=O)[nH]1 (stereo not given)
T/C [5]: 107 % of control | T/C [6]: 114 % of control | T/C (dose: 400.0 mg/kg/injection, schedule: Q01DX010 (ip), vehicle: saline): 115 % of control and 121 % of control | T/C (dose: 800.0 mg/kg/injection, schedule: Q01DX010 (ip), vehicle: saline): 123 % of control | T/C (dose: 1600.0 mg/kg/injection, schedule: Q01DX010 (ip), vehicle: saline): 88 % of control

O=C(Nc1ccc(C2=NCCN2)cc1)c1ccc(C(=O)Nc2ccc(C3=NCCN3)cc2)c(NC(=O)c2ccc(C(=O)Nc3cc(C(=O)Nc4ccc(C5=NCCN5)cc4)ccc3C(=O)Nc3ccc(C4=NCCN4)cc3)cc2)c1
T/C (dose: 25.0 mg/kg/injection, schedule: Q01DX010 (ip), vehicle: saline): 109 % of control | T/C (dose: 50.0 mg/kg/injection, schedule: Q01DX010 (ip), vehicle: saline): 109 % of control | T/C [5]: 104 % of control | T/C [6]: 104 % of control

O=C(Nc1ccc(C2=NCCN2)cc1)c1ccc(NC(=O)c2ccc(C3=NCCN3)cc2)cc1
T/C [7]: 104 % of control | T/C [8]: 108 % of control | T/C [9]: 113 % of control | T/C [10]: 113 % of control

O=C(Nc1ccc(C2=NCCN2)cc1)c1cccc(C(=O)Nc2ccc(C3=NCCN3)cc2)c1
T/C [11]: 118 % of control | T/C [12]: 111 % of control | T/C [13]: 158 % of control

COc1cc(-c2ccc(Nc3ccccc3C(=O)O)c(OC)c2)ccc1Nc1ccccc1C(=O)O
T/C [5]: 150 % of control

C1CN1c1nc(N2CC2)nc(N2CC2)n1
T/C (dose: 0.13 mg/kg/injection, schedule: Q01DX010 (ip), vehicle: saline): 88 % of control and 108 % of control | T/C (dose: 0.5 mg/kg/injection, schedule: Q01DX010 (ip), vehicle: saline): 152 % of control and 228 % of control

O=P1(N(CCCl)CCCl)NCCCO1 (stereo not given)
T/C (dose: 144.0 mg/kg/injection, schedule: Q01DX001 (ip), vehicle: saline): 181 % of control | T/C (dose: 240.0 mg/kg/injection, schedule: Q01DX001 (ip), vehicle: saline): 194 % of control

O=C1N[C@@H]([C@H]2CC[C@H](Cl)CN2)C(=O)N[C@H]1[C@H]1CC[C@H](Cl)CN1
T/C (dose: 2.4 mg/kg/injection, schedule: Q04DX003 (ip), vehicle: saline): 212 % of control | T/C (dose: 4.0 mg/kg/injection, schedule: Q04DX003 (ip), vehicle: saline): 225 % of control

CC[C@H]1CN2CCc3cc(OC)c(OC)cc3[C@@H]2C[C@@H]1C[C@H]1NCCc2cc(OC)c(OC)cc21
T/C (dose: 7.78 mg/kg/injection, schedule: Q04DX003 (ip), vehicle: saline): 105 % of control | T/C (dose: 13.0 mg/kg/injection, schedule: Q04DX003 (ip), vehicle: saline): 108 % of control | T/C (dose: 21.6 mg/kg/injection, schedule: Q04DX003 (ip), vehicle: saline): 105 % of control

C[C@@H]1C[C@@H]([C@H](O)CC2CC(=O)NC(=O)C2)C(=O)[C@@H](C)C1
T/C (dose: 5.0 mg/kg/injection, schedule: Q01DX010 (ip), vehicle: saline): 92 % of control and 108 % of control | T/C (dose: 10.0 mg/kg/injection, schedule: Q01DX010 (ip), vehicle: saline): 100 % of control and 104 % of control | T/C (dose: 20.0 mg/kg/injection, schedule: Q01DX010 (ip), vehicle: saline): 112 % of control and 116 % of control | T/C [9]: 120 % of control and 124 % of control

CC(CCC(C)OS(C)(=O)=O)OS(C)(=O)=O (stereo not given)
T/C (dose: 2.0 mg/kg/injection, schedule: Q01DX010 (ip), vehicle: saline): 100 % of control | T/C (dose: 4.0 mg/kg/injection, schedule: Q01DX010 (ip), vehicle: saline): 96 % of control | T/C [11]: 96 % of control and 100 % of control | T/C [12]: 100 % of control and 112 % of control | T/C [14]: 90 % of control

C[N+](C)(C)c1ncnc2nc[nH]c12
T/C [15]: 100 % of control | T/C [16]: 120 % of control | T/C [10]: 113 % of control | T/C [4]: 116 % of control

Clc1ncnc2nc[nH]c12
T/C (dose: 7.5 mg/kg/injection, schedule: Q01DX010 (ip), vehicle: saline): 96 % of control and 119 % of control | T/C [15]: 92 % of control and 107 % of control | T/C [16]: 107 % of control | T/C [10]: 92 % of control

CN=C(NC)c1ccc(NC(=O)c2ccc(C(=O)Nc3ccc(C(=NC)NC)cc3)c(Cl)c2)cc1
T/C [7]: 117 % of control | T/C [8]: 95 % of control

Nc1cc(C(=O)Nc2ccc(C3=NCCN3)cc2)cc(C(=O)Nc2ccc(C3=NCCN3)cc2)c1
T/C [14]: 156 % of control | T/C [13]: 165 % of control

CC[C@H]1CN2CCc3cc(OC)c(OC)cc3[C@@H]2C[C@@H]1C[C@@H]1c2cc(OC)c(OC)cc2CCN1CCN(CCCl)CCCl
T/C (dose: 6.48 mg/kg/injection, schedule: Q04DX003 (ip), vehicle: saline with Tween-80): 107 % of control | T/C (dose: 10.8 mg/kg/injection, schedule: Q04DX003 (ip), vehicle: saline with Tween-80): 111 % of control

O=NN(CCCl)C(=O)NCCCl
T/C (dose: 6.25 mg/kg/injection, schedule: Q01DX010 (ip), vehicle: saline): 300 % of control | T/C (dose: 12.5 mg/kg/injection, schedule: Q01DX010 (ip), vehicle: saline): 188 % of control and 300 % of control | T/C (dose: 13.0 mg/kg/injection, schedule: Q01DX001 (ip), vehicle: saline): 151 % of control | T/C (dose: 21.6 mg/kg/injection, schedule: Q01DX001 (ip), vehicle: saline): 164 % of control | T/C (dose: 36.0 mg/kg/injection, schedule: Q01DX001 (ip), vehicle: saline): 212 % of control
